This assay has as its system filaggrin. In words: Filaggrin protein expression in keratinocytes (PROTEINSIMPLE SIMON western blotting bioassay). It is filed as cell-based, human. To be noted: 1% tested, 24 to 36 hours. As to the method:
Changes in the production of filaggrin in keratinocytes due to each of the active ingredients, any one of the combination of ingredients, or compositions having said combinations disclosed in the specification can be measured. Filaggrin is the precursor to Natural Moisturizing Factor (NMF) in the skin. Increased NMF increases the moisture content of the skin.
Filaggrin production in treated and non-treated keratinocytes was determined using the PROTEINSIMPLE® SIMON™ western blotting bioassay that employs an antibody specific for filaggrin to quantitatively detect filaggrin concentration in keratinocyte cell lysates. The treated group of keratinocytes was treated with 1% of calcium or an extract of Laminaria saccharina, marine plankton, Opuntia ficus-indica, Imperata cylindrical, or Verbena officinalis (1%).
For each sample, normal human epidermal keratinocytes (NHEK) were grown in EPI-200—Mattek EPILIFE™ growth media with calcium from Life Technologies (M-EP-500-CA). […] The protein concentrations of the samples were determined and used to normalize the samples. The lysates were stored at −80° C. until used in the quantification assay. […] The chemiluminescent development was stopped at a specific time and the intensity of the chemiluminescent signal was measured (reported as Area Under Curve, AUC in Table 3 below) and compared to controls.
On the technique in general: In western blotting, separated proteins are transferred to a membrane and probed.

`[Ca+2]` [Calcium]: for the setting “NHEK, compared to controls”, the “% Ctrl (increase in filaggrin protein expression)” value was found to be 15.60%. Moreover, the “AUC (intensity of the chemiluminescent signal, filaggrin)” value (normal human epidermal keratinocytes (NHEK), control AUC 70848) was determined as 81899.

These data come from patent US20210330578A1, “TOPICAL COSMETIC COMPOSITIONS” (Mary Kay Inc., priority 2020, published 2021).
